Test results taken from patent US20020010210A1, “PHARMACEUTICAL PREPARATION AND METHOD FOR TREATING CANCER” (priority 1997, published 2002).
Structures can show the parent of a compound that is named as a salt. Numbered stars: 1 amine (or outer) side, 2 acyl side, 3 side chain; on linkers, the order of the positions; unused ones are H or OH. Bridge positions count the residues as written; N and C are the ends. Square brackets hold non-standard residues; d marks the D form. Peptide text beside a SMILES is read from it. I, II: the chains in the order shown. Actinocin(9to1) = Cc1c2oc3c(C)ccc(C(=O)[*:1])c3nc-2c(C(=O)[*:2])c(N)c1=O; NMeV = CN[C@H](C(=O)O)C(C)C; Sar = CNCC(=O)O

How the values were obtained:
[1] = test system: spontaneous breast cancer rat cells (SST-2); assay: Lung metastasis of SST-2 in SHR rats, ascorbic acid derivative combined with known anticancer agent (Example 4); format: in vivo
[2] = test system: spontaneous breast cancer rat cells (SST-2); assay: as above; format: in vivo; remark: listed apart in the source
Procedure: 1×100,000 spontaneous breast cancer rat cells (SST-2) were subcutaneously implanted into the back of a rat (SHR rat) (5 rats per group) suffering from spontaneous hypertension. After 35 days, the rats were sacrificed, and the number of colonies formed were measured to examine the degree of metastasis of SST-2 to the lung.
The ascorbic acid derivatives used were L-ascorbic acid-2-phosphate-6-palmitate, L-ascorbic acid-6-benzoate (reference compound) and magnesium L-ascorbic acid-2-phosphate.
Each of the groups treated with an ascorbic acid derivative was subjected to a test of administering the ascorbic acid derivative alone and to a test of administering the ascorbic acid derivative in combination with a known anticancer agent as shown in Table 4. Furthermore, tests of administering the anticancer agents alone were conducted. Over the period of from 7 days prior to implantation to 34 days after the implantation, the ascorbic acid derivative was injected through a vein in the tail region at a dose of 1 mg/1 day/rat. Each of the known anticancer agents was perorally administered in a minimum dose by reference to the concentration for a single use case described in the publication, Tyakuhin Yoran (Medical Product Handbook), 4th Edition, pp. 1474-1509, Yakugyo Jiho-Sha (1989), and the number of colonies formed after metastasis was compared.

[3] = ascorbic acid derivative 1 mg/1 day/rat tail vein, day -7 to day 34, known anticancer agent perorally in minimum dose, colonies after 35 days

N=c1ccn2c(n1)O[C@H]1[C@H](O)[C@@H](CO)O[C@H]12 [ANCITABINE hydrochloride]
Cancer metastasis inhibitory effect of combination with L-Ascorbic Acid-2-Phosphate-6-Benzoate versus each agent alone [1, 3]: + | Cancer metastasis inhibitory effect of combination with L-Ascorbic Acid-6-Palmitate versus each agent alone [1, 3]: − | Cancer metastasis inhibitory effect of combination with L-Ascorbic Acid-2-Phosphate-6-Palmitate versus each agent alone [2, 3]: +

COC(COC(N)=O)C1=C(N2CC2)C(=O)C(C)=C(N2CC2)C1=O (stereo not drawn) [CARBOCON]
Cancer metastasis inhibitory effect of combination with L-Ascorbic Acid-2-Phosphate-6-Benzoate versus each agent alone [1, 3]: + | Cancer metastasis inhibitory effect of combination with L-Ascorbic Acid-6-Palmitate versus each agent alone [1, 3]: − | Cancer metastasis inhibitory effect of combination with L-Ascorbic Acid-2-Phosphate-6-Palmitate versus each agent alone [2, 3]: +

C[C@]12CC[C@@H]3c4ccc(OC(=O)N(CCCl)CCCl)cc4CC[C@H]3[C@@H]1CC[C@@H]2OP(=O)(O)O [Estracyt (R)]
Cancer metastasis inhibitory effect of combination with L-Ascorbic Acid-2-Phosphate-6-Benzoate versus each agent alone [1, 3]: + | Cancer metastasis inhibitory effect of combination with L-Ascorbic Acid-6-Palmitate versus each agent alone [1, 3]: − | Cancer metastasis inhibitory effect of combination with L-Ascorbic Acid-2-Phosphate-6-Palmitate versus each agent alone [2, 3]: +

CC/C(=C(/CC)c1ccc(OP(=O)(O)O)cc1)c1ccc(OP(=O)(O)O)cc1 [HONPAN]
Cancer metastasis inhibitory effect of combination with L-Ascorbic Acid-2-Phosphate-6-Benzoate versus each agent alone [1, 3]: + | Cancer metastasis inhibitory effect of combination with L-Ascorbic Acid-6-Palmitate versus each agent alone [1, 3]: − | Cancer metastasis inhibitory effect of combination with L-Ascorbic Acid-2-Phosphate-6-Palmitate versus each agent alone [2, 3]: +

O[C@@H]([C@H](O)[C@H](O)CBr)[C@H](O)CBr [MITOPURNITOL]
Cancer metastasis inhibitory effect of combination with L-Ascorbic Acid-2-Phosphate-6-Benzoate versus each agent alone [1, 3]: + | Cancer metastasis inhibitory effect of combination with L-Ascorbic Acid-6-Palmitate versus each agent alone [1, 3]: − | Cancer metastasis inhibitory effect of combination with L-Ascorbic Acid-2-Phosphate-6-Palmitate versus each agent alone [2, 3]: +

CS(=O)(=O)OCCCNCCCOS(C)(=O)=O.Cc1ccc(S(=O)(=O)O)cc1 [Protecton (R)]
Cancer metastasis inhibitory effect of combination with L-Ascorbic Acid-2-Phosphate-6-Benzoate versus each agent alone [1, 3]: + | Cancer metastasis inhibitory effect of combination with L-Ascorbic Acid-6-Palmitate versus each agent alone [1, 3]: − | Cancer metastasis inhibitory effect of combination with L-Ascorbic Acid-2-Phosphate-6-Palmitate versus each agent alone [2, 3]: +

S=P(N1CC1)(N1CC1)N1CC1 [TIOTEBA]
Cancer metastasis inhibitory effect of combination with L-Ascorbic Acid-2-Phosphate-6-Benzoate versus each agent alone [1, 3]: + | Cancer metastasis inhibitory effect of combination with L-Ascorbic Acid-6-Palmitate versus each agent alone [1, 3]: − | Cancer metastasis inhibitory effect of combination with L-Ascorbic Acid-2-Phosphate-6-Palmitate versus each agent alone [2, 3]: +

CC(=O)O[C@@H]1C(=O)O[C@H]2[C@@H]1OC(=O)[C@@H]2OC(C)=O [aceglatone]
Cancer metastasis inhibitory effect of combination with L-Ascorbic Acid-2-Phosphate-6-Benzoate versus each agent alone [1, 3]: + | Cancer metastasis inhibitory effect of combination with L-Ascorbic Acid-6-Palmitate versus each agent alone [1, 3]: − | Cancer metastasis inhibitory effect of combination with L-Ascorbic Acid-2-Phosphate-6-Palmitate versus each agent alone [2, 3]: +

CC[C@@]1(O)C[C@H](O[C@H]2C[C@H](N(C)C)[C@H](O[C@H]3C[C@H](O)[C@H](O[C@H]4CCC(=O)[C@H](C)O4)[C@H](C)O3)[C@H](C)O2)c2c(cc3c(c2O)C(=O)c2c(O)cccc2C3=O)[C@H]1C(=O)OC [aclarubicin hydrochloride]
Cancer metastasis inhibitory effect of combination with L-Ascorbic Acid-2-Phosphate-6-Benzoate versus each agent alone ([1]; rat, in vivo): + | Cancer metastasis inhibitory effect of combination with L-Ascorbic Acid-6-Palmitate versus each agent alone ([1]; rat, in vivo): − | Cancer metastasis inhibitory effect of combination with L-Ascorbic Acid-2-Phosphate-6-Palmitate versus each agent alone ([2]; rat, in vivo): +

Cc1c2oc3c(C)ccc(C(=O)N[C@@H]4C(=O)N[C@H](C(C)C)C(=O)N5CCC[C@H]5C(=O)N(C)CC(=O)N(C)[C@@H](C(C)C)C(=O)O[C@@H]4C)c3nc-2c(C(=O)N[C@@H]2C(=O)N[C@H](C(C)C)C(=O)N3CCC[C@H]3C(=O)N(C)CC(=O)N(C)[C@@H](C(C)C)C(=O)O[C@@H]2C)c(N)c1=O [actinomycin (D)] (I: T[dV]P[Sar][NMeV] / II: T[dV]P[Sar][NMeV]; ester I:1-I:C, II:1-II:C; linker I:N-II:N via Actinocin(9to1))
Cancer metastasis inhibitory effect of combination with L-Ascorbic Acid-2-Phosphate-6-Benzoate versus each agent alone ([1]; rat, in vivo): + | Cancer metastasis inhibitory effect of combination with L-Ascorbic Acid-6-Palmitate versus each agent alone ([1]; rat, in vivo): − | Cancer metastasis inhibitory effect of combination with L-Ascorbic Acid-2-Phosphate-6-Palmitate versus each agent alone ([2]; rat, in vivo): +

CS(=O)(=O)OCCCCOS(C)(=O)=O [bulsfan]
Cancer metastasis inhibitory effect of combination with L-Ascorbic Acid-2-Phosphate-6-Benzoate versus each agent alone ([1]; rat, in vivo): ± | Cancer metastasis inhibitory effect of combination with L-Ascorbic Acid-6-Palmitate versus each agent alone ([1]; rat, in vivo): − | Cancer metastasis inhibitory effect of combination with L-Ascorbic Acid-2-Phosphate-6-Palmitate versus each agent alone ([2]; rat, in vivo): +

CCCCCCNC(=O)n1cc(F)c(=O)[nH]c1=O [carmofur]
Cancer metastasis inhibitory effect of combination with L-Ascorbic Acid-2-Phosphate-6-Benzoate versus each agent alone [1, 3]: + | Cancer metastasis inhibitory effect of combination with L-Ascorbic Acid-6-Palmitate versus each agent alone [1, 3]: − | Cancer metastasis inhibitory effect of combination with L-Ascorbic Acid-2-Phosphate-6-Palmitate versus each agent alone [2, 3]: +

CO[C@@H]1[C@H](O)C[C@@H](O[C@@H]2C[C@H](Oc3cc4cc5c(c(O)c4c(O)c3C)C(=O)[C@@H](O[C@H]3C[C@@H](O[C@H]4C[C@@H](O[C@H]6C[C@](C)(O)[C@@H](OC(C)=O)[C@H](C)O6)[C@H](O)[C@@H](C)O4)[C@H](O)[C@@H](C)O3)[C@H]([C@H](OC)C(=O)[C@@H](O)[C@@H](C)O)C5)O[C@H](C)[C@@H]2OC(C)=O)O[C@@H]1C [chromomycin A3]
Cancer metastasis inhibitory effect of combination with L-Ascorbic Acid-2-Phosphate-6-Benzoate versus each agent alone [1, 3]: + | Cancer metastasis inhibitory effect of combination with L-Ascorbic Acid-6-Palmitate versus each agent alone [1, 3]: − | Cancer metastasis inhibitory effect of combination with L-Ascorbic Acid-2-Phosphate-6-Palmitate versus each agent alone [2, 3]: +

N.N.[Cl][Pt][Cl] [cisplatin]
Cancer metastasis inhibitory effect of combination with L-Ascorbic Acid-2-Phosphate-6-Benzoate versus each agent alone [1, 3]: + | Cancer metastasis inhibitory effect of combination with L-Ascorbic Acid-6-Palmitate versus each agent alone [1, 3]: − | Cancer metastasis inhibitory effect of combination with L-Ascorbic Acid-2-Phosphate-6-Palmitate versus each agent alone [2, 3]: +

O=P1(N(CCCl)CCCl)NCCCO1 (stereo not drawn) [cyclophosphamido]
Cancer metastasis inhibitory effect of combination with L-Ascorbic Acid-2-Phosphate-6-Benzoate versus each agent alone [1, 3]: + | Cancer metastasis inhibitory effect of combination with L-Ascorbic Acid-6-Palmitate versus each agent alone [1, 3]: − | Cancer metastasis inhibitory effect of combination with L-Ascorbic Acid-2-Phosphate-6-Palmitate versus each agent alone [2, 3]: +

Nc1ccn([C@@H]2O[C@H](CO)[C@@H](O)[C@@H]2O)c(=O)n1 [cytarabine]
Cancer metastasis inhibitory effect of combination with L-Ascorbic Acid-2-Phosphate-6-Benzoate versus each agent alone [1, 3]: + | Cancer metastasis inhibitory effect of combination with L-Ascorbic Acid-6-Palmitate versus each agent alone [1, 3]: − | Cancer metastasis inhibitory effect of combination with L-Ascorbic Acid-2-Phosphate-6-Palmitate versus each agent alone [2, 3]: +

COc1cccc2c1C(=O)c1c(O)c3c(c(O)c1C2=O)C[C@@](O)(C(C)=O)C[C@@H]3O[C@H]1C[C@H](N)[C@H](O)[C@H](C)O1 [daunorubicin hydrochloride]
Cancer metastasis inhibitory effect of combination with L-Ascorbic Acid-2-Phosphate-6-Benzoate versus each agent alone ([1]; rat, in vivo): + | Cancer metastasis inhibitory effect of combination with L-Ascorbic Acid-6-Palmitate versus each agent alone ([1]; rat, in vivo): − | Cancer metastasis inhibitory effect of combination with L-Ascorbic Acid-2-Phosphate-6-Palmitate versus each agent alone ([2]; rat, in vivo): +

CN(C)/N=N/c1[nH]cnc1C(N)=O [decarbazine]
Cancer metastasis inhibitory effect of combination with L-Ascorbic Acid-2-Phosphate-6-Benzoate versus each agent alone [1, 3]: + | Cancer metastasis inhibitory effect of combination with L-Ascorbic Acid-6-Palmitate versus each agent alone [1, 3]: − | Cancer metastasis inhibitory effect of combination with L-Ascorbic Acid-2-Phosphate-6-Palmitate versus each agent alone [2, 3]: +

COc1cccc2c1C(=O)c1c(O)c3c(c(O)c1C2=O)C[C@@](O)(C(=O)CO)C[C@@H]3O[C@H]1C[C@H](N)[C@H](O)[C@H](C)O1 [doxorubicin hydrochloride]
Cancer metastasis inhibitory effect of combination with L-Ascorbic Acid-2-Phosphate-6-Benzoate versus each agent alone [1, 3]: + | Cancer metastasis inhibitory effect of combination with L-Ascorbic Acid-6-Palmitate versus each agent alone [1, 3]: − | Cancer metastasis inhibitory effect of combination with L-Ascorbic Acid-2-Phosphate-6-Palmitate versus each agent alone [2, 3]: +

CCCCCCCCCCCCCCCCCCCCCC(=O)Nc1ccn([C@@H]2O[C@H](CO)[C@@H](O)[C@@H]2O)c(=O)n1 [enocitabine]
Cancer metastasis inhibitory effect of combination with L-Ascorbic Acid-2-Phosphate-6-Benzoate versus each agent alone [1, 3]: ± | Cancer metastasis inhibitory effect of combination with L-Ascorbic Acid-6-Palmitate versus each agent alone [1, 3]: − | Cancer metastasis inhibitory effect of combination with L-Ascorbic Acid-2-Phosphate-6-Palmitate versus each agent alone [2, 3]: +

C[C@]12C[C@H]3S[C@H]3C[C@@H]1CC[C@@H]1[C@@H]2CC[C@]2(C)[C@@H](O)CC[C@@H]12 [epitiostanol]
Cancer metastasis inhibitory effect of combination with L-Ascorbic Acid-2-Phosphate-6-Benzoate versus each agent alone ([1]; rat, in vivo): + | Cancer metastasis inhibitory effect of combination with L-Ascorbic Acid-6-Palmitate versus each agent alone ([1]; rat, in vivo): − | Cancer metastasis inhibitory effect of combination with L-Ascorbic Acid-2-Phosphate-6-Palmitate versus each agent alone ([2]; rat, in vivo): +

O=c1[nH]c(=O)n([C@H]2C[C@H](O)[C@@H](CO)O2)cc1F [floxuridine]
Cancer metastasis inhibitory effect of combination with L-Ascorbic Acid-2-Phosphate-6-Benzoate versus each agent alone [1, 3]: + | Cancer metastasis inhibitory effect of combination with L-Ascorbic Acid-6-Palmitate versus each agent alone [1, 3]: − | Cancer metastasis inhibitory effect of combination with L-Ascorbic Acid-2-Phosphate-6-Palmitate versus each agent alone [2, 3]: +

O=c1[nH]cc(F)c(=O)[nH]1 [fluorouracil]
Cancer metastasis inhibitory effect of combination with L-Ascorbic Acid-2-Phosphate-6-Benzoate versus each agent alone [1, 3]: + | Cancer metastasis inhibitory effect of combination with L-Ascorbic Acid-6-Palmitate versus each agent alone [1, 3]: − | Cancer metastasis inhibitory effect of combination with L-Ascorbic Acid-2-Phosphate-6-Palmitate versus each agent alone [2, 3]: +

O=P1(NCCCl)OCCCN1CCCl (stereo not drawn) [ifosfamide]
Cancer metastasis inhibitory effect of combination with L-Ascorbic Acid-2-Phosphate-6-Benzoate versus each agent alone ([1]; rat, in vivo): + | Cancer metastasis inhibitory effect of combination with L-Ascorbic Acid-6-Palmitate versus each agent alone ([1]; rat, in vivo): − | Cancer metastasis inhibitory effect of combination with L-Ascorbic Acid-2-Phosphate-6-Palmitate versus each agent alone ([2]; rat, in vivo): +
